Measurements from patent US5202456A, “Compounds for inhibition of protein methylation” (The President and Fellows of Harvard College, priority 1991, dated 1993).
Entries after “also recorded” stand apart in the source; their conditions may differ. Read-outs that look alike come from different tables or passages of the source. Each block holds one molecule with its values, some of them ahead of it. * marks the point of attachment. Farnesyl = CC(C)=CCC/C(C)=C/CC/C(C)=C/C*

Experiments:
[1] = system: demethylase activity in ROS membranes; test: Methylation exchange/demethylation of AFC methyl ester with ROS membranes; format: biochemical, bovine
Description: (§1) Frozen bovine retinas (Wanda Lawson Co., Lincoln, Nebr.) were used to prepare ROS membranes depleted of peripheral proteins using a modification of the procedure of Wessling-Resnick et al. (J. Biol. Chem. 262:3697, 1987). Briefly, ROS membranes were washed with low ionic strength buffer and 100μM GTP, resuspended in 50 mM Hepes-Na (pH 7.4), 100 mM NaCl, 5 mM MgCl2, 0.1 mM phenylmethylsulfonyl fluoride, 0.1 mM dithiothreitol (buffer A) and stored in small aliquots at -80° C. until used. Transducin was isolated by disrupting ROS membranes by passing the membranes through a narrow needle and washing the disrupted membranes in a series of centrifugation steps as described by Wessling-Resnick et al. (J. Biol. Chem. 262:3697, 1987). Finally transducin was eluted from the membranes with 100μM GTP. The transducin-enriched supernatant was concentrated using Centriprep (Amicon).
(§2) For initial studies, the reaction mixture contained 20 μCi of S-adenosyl-[methyl-^3 H] methionine ([^3 H]SAM) (2.34 μM, Amersham) and an aliquot of ROS (120μg of total protein) or of washed ROS membranes (80μg of total protein) in 100 μl of buffer A. Purified transducin was added to this mixture to a concentration of 5 μM. AFC, N-acetylcysteine, or AFC methylester was added in 2 μl of dimethyl sulfoxide to give a final concentration of 20 μM, and the reaction was carried out at 37° C.
To study the demethylation process directly, AFC[^3 H]methyl ester was incubated with ROS membranes in the presence of methylation inhibitors. […] Under similar conditions, demethylation of Tγ and the putative small G protein (23-29 kDa) was also observed.

HL-60 cell extracts = test: Turnover of AFC methyl ester by HL-60 cell extracts; format: biochemical; details: in words
[2] = target: T1, ROS methyltransferase (bovine retinal rod outer segment S-adenosyl-L-methionine-dependent methyltransferase) (Bos taurus, UniProt A0AAA9SD88); test: ROS methyltransferase assay: compounds as substrates (Km) or inhibitors (Ki) of AFC methylation; format: biochemical
T1 construct: utilizing ROS membranes as the source of methyltransferase enzyme; tissue Wanda Lawson Co., Lincoln, Nebr; (frozen bovine retinas); host or cells: bovine retinal rod outer segment (ROS) membranes
T1 sequence (A0AAA9SD88 1-284): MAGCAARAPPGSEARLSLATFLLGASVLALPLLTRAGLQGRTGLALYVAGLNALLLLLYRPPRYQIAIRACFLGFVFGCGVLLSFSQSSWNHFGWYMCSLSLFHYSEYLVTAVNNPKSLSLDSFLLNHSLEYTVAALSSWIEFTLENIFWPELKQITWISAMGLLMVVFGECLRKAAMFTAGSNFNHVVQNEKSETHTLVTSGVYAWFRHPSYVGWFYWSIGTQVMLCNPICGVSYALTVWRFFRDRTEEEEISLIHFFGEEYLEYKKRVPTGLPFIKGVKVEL
Description: Standard assays may be used to determine Km for substrates and Ki for inhibitors. […] The values of Ki and Km are calculated from kinetic assays by conventional means (Fersht, Enzyme Structure and Mechanism, W. H. Freeman and Co., New York, 1984). Examples are provided below to illustrate suitable assays, and are not intended to limit the invention.
One suitable assay of methylation functions uses bovine retinal rod outer segment (ROS) methyltransferase and a natural substrate, transducin. […] Another suitable assay uses N-acetyl-S-farnesylcysteine as a substrate for ROS methyltransferase.
The bovine retinal transducin γ subunit has a carboxyl-terminal --CAAX motif and undergoes a farnesylation reaction similar to that observed on ras (Lai et al., Proc. Natl. Acad. Sci. USA 87:7673, 1990; Fukada et al., Nature 346:658, 1990).
as §1, §2
The above-described methyltransferase assay was used to analyze the analogs described above.

transducin γ subunit = test: In vitro carboxyl-methylation of transducin γ subunit in ROS; format: biochemical, bovine; details: 10 μM; [3H]SAM 2.3 μM; densitometry of SDS gels
Description: We have identified an S-adenosyl-L-methionine-dependent methyltransferase activity in bovine retinal rod outer segments (ROS) which methylates the free carboxyl group of the farnesylated cysteine of bovine retinal transducin γ subunit. The bovine retinal transducin γ subunit has a carboxyl-terminal --CAAX motif and undergoes a farnesylation reaction similar to that observed on ras (Lai et al., Proc. Natl. Acad. Sci. USA 87:7673, 1990; Fukada et al., Nature 346:658, 1990). Bovine retinal rod outer segment S-adenosyl-L-methionine-dependent methyltransferase (ROS methyltransferase) provides a means by which to identify compounds capable of interfering with the methylation of proteins having a carboxyl-terminal --CAAX motif.
Frozen bovine retinas (Wanda Lawson Co., Lincoln, Nebr.) were used to prepare ROS membranes depleted of peripheral proteins using a modification of the procedure of Wessling-Resnick et al. (J. Biol. Chem. 262:3697, 1987). Briefly, ROS membranes were washed with low ionic strength buffer and 100μM GTP, resuspended in 50 mM Hepes-Na (pH 7.4), 100 mM NaCl, 5 mM MgCl2, 0.1 mM phenylmethylsulfonyl fluoride, 0.1 mM dithiothreitol (buffer A) and stored in small aliquots at -80° C. until used. […]

HL-60 cells = test: Inhibition of HL-60 cell proliferation (trypan blue dye exclusion count); format: cell-based; details: FIG. 2; in words
Description: FTA, FTP, AFHC and AFC were tested for their ability to inhibit cell growth as follows.
HL-60 cells (ATCC CCL 240, American Type Culture Collection, Rockville, Md.) which harbor an activated ras gene were grown in RPMI medium (Gibco/BRL, Bethesda, Md.) supplemented with 10-15% fetal calf serum, L-glutamine, penicillin and streptomycin. These cells were treated with various concentrations of FTA, FTP, AFHC, or AFC dissolved in dimethyl sulfoxide (DMSO) or with DMSO only (In all experiments the final DMSO concentration was 1% or less). Treated ans untreated cells were incubated under standard culture conditions for several days. Cells were counted manually at 24 hour intervals using a trypan blue dye exclusion assay which counts only live, intact cells.

23 kDa ras protein = test: [3H]SAM methylation of 23 kDa ras protein in disrupted HL-60 cells; format: biochemical; details: 50 μM
Description: In an in vitro labelling reaction similar to that described above for ROS membranes, the 23 kDa ras protein was the principle protein methylated by [^3 H]SAM labelling of disrupted HL-60 cells. In this assay 50 μM FTA inhibited methylation of the 23 kDa protein by 61%.

[3] = system: methyltransferase activity in HL-60 cells; test: Methylation of AFC by activity present in HL-60 cell membrane; format: biochemical; details: 10-fold excess of FTA
[4] = system: methyltransferase present in HL-60 cell extracts; test: Methylation of transducin γ subunit by HL-60 cell extract methyltransferase; format: biochemical; details: in words
[5] = [3H]SAM and washed ROS membranes

hydrolysis of methyl ester by demethylase activity ([1]; ROS membranes, in presence of methylation inhibitors): rapidly hydrolyzed
duration of linear incorporation of radioactivity [1, 5]: at least 2 hr
Molecule: COC(=O)[C@H](CSC/C=C(\C)CC/C=C(\C)CCC=C(C)C)NC(C)=O [AFC methyl ester]
incorporation of radioactivity into AFC methyl ester [1, 5]: linear, time-dependent incorporation of radioactivity
turnover by HL-60 cell extracts (HL-60 cell extracts): can be turned over

Ki ([2]; Table 1, conventional inhibitors, read-out: Ki): 4.6 µM
Ki ([2]; calculated, read-out: Ki for inhibition of AFC methylation): 4.6 µM
competitive inhibition of AFC methylation ([2]; in words): potent competitive inhibitors
Molecule: CC(C)=CCC/C(C)=C/CC/C(C)=C/CSCC(=O)O [FTA, 2-farnesylthioacetic acid]
substrate activity for ROS methyltransferase ([2]; in words): substrate activity was lost; also recorded: not substrates
inhibition of in vitro carboxyl-methylation of transducin γ subunit (transducin γ subunit): 70%
inhibition of proliferation of HL-60 cells (HL-60 cells): can inhibit proliferation
inhibition of methylation of the 23 kDa protein (23 kDa ras protein): 61%
inhibition of AFC methylation by HL-60 membrane activity [3]: 90%

B1: γ subunit of transducin: γ subunit (Tγ) of retinal transducin, farnesylated at cysteine (protein, UniProt P02698 2-71, looked up)
Guanine nucleotide-binding …: PVINIEDLTEKDKLKMEVDQLKKEVTLERMLVSKCCEEFRDYVEERSGEDPLVKGIPEDKNPFKELKGGC(Farnesyl)
modifications: ends and bridges not checked
notes: γ subunit (Tγ) of retinal transducin, farnesylated at cysteine
methylation by methyltransferase in HL-60 cell extracts [4]: can be methylated
